Columns and labels:
Assay in all cases: relative viability (nuclei count vs DMSO), 5 days (fraction); higher = more cells survive
[1] = compound: C1CNCCC1C2=CC(=NN2)C3=CC=NC=C3 + O=C(CCCCCCC(=O)Nc1ccccc1)NO [Vorinostat] (partner 1 µM)
In short: (§1)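 Each reported value is a median over duplicate plates. It expresses relative viability: treated-well nuclei count divided by vehicle-well nuclei count. Lung cancer cell lines in 1536-well plates were dosed by pin tool a day after seeding, alone with one drug or with a fixed anchor-drug dose plus five library-drug doses (not always all listed) in √10 steps, and nuclei were counted after 5 days.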

Tanzisertib + OSI-027 = compound: O[C@H]1CC[C@H](Nc2ncc3nc(Nc4c(F)cc(F)cc4F)n([C@H]4CCOC4)c3n2)CC1 [Tanzisertib] + COc1cccc2cc(-c3nc([C@H]4CC[C@H](C(=O)O)CC4)n4ncnc(N)c34)[nH]c12 [OSI-027] (partner 0.5 µM)
In short: as §1

[2] = compound: C[C@@H](N)c1ccc(C(=O)Nc2ccnc3[nH]ccc23)cc1 + Cc1nc(Nc2ncc(C(=O)Nc3c(C)cccc3Cl)s2)cc(N2CCN(CCO)CC2)n1 [Dasatinib] (partner 0.075 µM)
In short: as §1

[3] = compound: C1CNCCC1C2=CC(=NN2)C3=CC=NC=C3 + Nc1nc2[nH]cc(CCc3ccc(C(=O)N[C@@H](CCC(=O)O)C(=O)O)cc3)c2c(=O)[nH]1 [Pemetrexed] (partner 0.2 µM)
In short: as §1

UMC-11
relative viability ([1]; first compound 0.08 µM): 0.394
relative viability ([1]; first compound 0.8 µM): 0.419
relative viability ([1]; first compound 2.53 µM): 0.392
relative viability ([1]; first compound 8 µM): 0.565
relative viability (Tanzisertib + OSI-027; first compound 0.08 µM): 0.532
relative viability (Tanzisertib + OSI-027; first compound 0.253 µM): 0.391
relative viability (Tanzisertib + OSI-027; first compound 0.8 µM): 0.537
relative viability (Tanzisertib + OSI-027; first compound 2.53 µM): 0.439
relative viability (Tanzisertib + OSI-027; first compound 8 µM): 0.477
relative viability ([2]; first compound 0.04 µM): 0.543
relative viability ([2]; first compound 0.1265 µM): 0.482
relative viability ([2]; first compound 0.4 µM): 0.58
relative viability ([2]; first compound 1.265 µM): 0.518
relative viability ([2]; first compound 4 µM): 0.527
relative viability ([3]; first compound 0.08 µM): 0.653
relative viability ([3]; first compound 0.8 µM): 0.9
relative viability ([3]; first compound 2.53 µM): 0.874
relative viability ([3]; first compound 8 µM): 0.811

From the supplement of paper PMC10307832
